Data from patent publication US8753841B2, “Enzyme that catalyzes a peptide-forming reaction from a carboxy component and an amine component, microbe producing the same, and a method of producing a dipeptide using the enzyme or microbe” (Ajinomoto Co., Inc., priority 2002, dated 2014).
Marks after values point to notes of the source that are not given here. Non-standard residues stand in square brackets, D forms with d. No end group written: not given here. *: point of attachment. Boc = CC(C)(C)OC(=O)*; OtBu = CC(C)(C)O*; tBu = CC(C)(C)*

Tests used:
Format in all cases: biochemical
[1] = system: enzyme derived from Sphingobacterium sp. strain FERM BP-8124; test: Substrate specificity of enzyme derived from Sphingobacterium sp.; design: key to Produced peptide (mM): +: those peptides for which production was confirmed but which were unable to be quantified due to the absence of a standard; a trace amount; conditions: carboxy component 100 mM, amine component 150 mM, 0.33 units enzyme, pH 9.0, 25° C., 1.5 hours
[2] = system: peptide-forming enzyme from Empedobacter brevis strain FERM BP-8113; test: Substrate specificity of enzyme (peptide production from carboxy and amine components); design: key to Formed peptide (mM): +: those peptides for which production was confirmed but which were unable to be quantified due to the absence of a standard; a trace amount
[3] = system: peptide-forming enzyme from Empedobacter brevis strain FERM BP-8113; test: as above; design: key to Formed peptide (mM): +: those peptides for which production was confirmed but which were unable to be quantified due to the absence of a standard; a trace amount; conditions: pH 9.0, 25° C.; for L-Ala-L-Gln formed: carboxy component 100 mM, 200 mM L-glutamine, 2 hours; for Formed peptide / Formed peptide (mM): L-amino acid methyl ester hydrochloride 100 mM, 3 hours; for Formed peptide: L-amino acid 150 mM; for Formed peptide (mM): 150 mM L-glutamine
Source text: Ester specificity was examined in the case of using L-amino acid ester for the carboxy component. […] HCl represents hydrochloride in Table 4.
Peptide production was examined in the case of using L-alanine methyl ester for the carboxy component and using various L-amino acids for the amine component.
Peptide production was examined in the case of using various types of L-amino acid methyl esters for the carboxy component and using L-glutamine for the amine component. […] Furthermore, Tween-80 was added to the reaction system to a final concentration of 0.1% in the case of using L-Trp-OMe and L-Tyr-OMe.

[4] = amino acid methyl ester hydrochloride 100 mM, methylamine 150 mM, pH 9.0, 25° C., 3 hours
[5] = β-amino acid ester or β-amino acid, carboxy component 100 mM, amine component 150 mM, pH 9.0, 25° C., 3 hours
[6] = L or D amino acid methyl ester hydrochloride 100 mM, L or D amino acid 150 mM, pH 9.0, 25° C., 3 hours
[7] = carboxy component 100 mM, peptide amine component 150 mM, pH 9.0, 25° C., 3 hours
[8] = oligopeptide production, amount of enzyme 1.0 unit, pH 9.0, 25° C., 3 hours
[9] = carboxy component 100 mM, amine component 150 mM, 0.1 unit enzyme, 25° C., reaction time 3 hr
[10] = carboxy component 100 mM, amine component 150 mM, 0.1 unit enzyme, 25° C., reaction time 2 hr
[11] = carboxy component 40 mM, amine component 40 mM, 0.1 unit enzyme, 25° C., reaction time 3 hr
[12] = L-alanine methyl ester hydrochloride 100 mM, L-amino acid amide hydrochloride 150 mM, pH 9.0, 25° C., 3 hours

CNC(=O)CN [Gly-methylamine]
Produced peptide ([1]; Table 15-4): 1.0 mM
Formed peptide [2, 4]: 1.1 mM

CNC(=O)C(C)N [L-Ala-methylamine]
Produced peptide ([1]; Table 15-4): 0.6 mM
Formed peptide [2, 4]: 0.3 mM

CCOC(=O)[C@H](C)N.Cl [L-Alanine ethyl ester•HCl]
L-Ala-L-Gln formed [3]: 91.5 mM

CC(C)OC(=O)[C@H](C)N.Cl [L-Alanine isopropyl ester•HCl]
L-Ala-L-Gln formed [3]: 78.9 mM

COC(=O)[C@H](C)N.Cl [L-Alanine methyl ester•HCl, L-alanine methyl ester hydrochloride]
L-Ala-L-Gln formed [3]: 84.3 mM

C[C@H](N)C(=O)OC(C)(C)C.Cl [L-Alanine-t-butyl ester•HCl]
L-Ala-L-Gln formed [3]: 7.5 mM

CNC(=O)[C@@H](N)[C@@H](C)O [L-Thr-methylamine]
Produced peptide ([1]; Table 15-4): 0.3 mM
Formed peptide [2, 4]: 0.2 mM

Ala-β-Ala
Formed peptide [2, 5]: 7.7 mM

Ala-β-Phe
Formed peptide [2, 5]: 1.4 mM

D-Ala-D-Gln
Formed peptide (mM) [2, 6]: tr

D-Ala-D-Ser
Produced peptide ([1]; Table 15-1): 5.5 mM
Formed peptide [2, 6]: 0.2 mM

D-Ala-L-Gln
Formed peptide [2, 6]: 69.3 mM

D-Ala-L-Ser
Produced peptide ([1]; Table 15-1): 24.1 mM
Formed peptide [2, 6]: 20.3 mM

D-Met-D-Ser
Formed peptide [2, 6]: 2.7 mM

D-Met-L-Ser
Formed peptide [2, 6]: 5.1 mM

D-Ser-D-Ser
Formed peptide [2, 6]: 2.5 mM

D-Ser-L-Ser
Formed peptide [2, 6]: 3.3 mM

D-Thr-D-Ser
Formed peptide [2, 6]: 1.1 mM

D-Thr-L-Ser
Formed peptide [2, 6]: 1.0 mM

D-Val-D-Ser
Formed peptide [2, 6]: 0.5 mM

D-Val-L-Ser
Formed peptide [2, 6]: 0.6 mM

Gly-Gly-L-Gln
Produced peptide [2, 7]: 7.2 mM

Gly-Gly-L-Tyr-L-Ala
Produced peptide [2, 7]: 44.2 mM

Gly-L-Ala-L-Tyr
Produced peptide ([1]; oligopeptide production): 0.6 mM
Produced peptide [2, 7]: 1.7 mM

Gly-L-CySH
Formed peptide [3]: 45.6 mM

Gly-Phe-Met
Produced peptide [2, 8]: 13.3 mM

Gly-β-Ala
Formed peptide [2, 5]: 2.2 mM

Gly-β-Phe
Formed peptide [2, 5]: 0.4 mM

H-Aib-H-Gln-OH
Produced peptide [2, 9]: 18.8 mM

H-Aib-Phe-OH
Produced peptide [2, 9]: 17.2 mM

H-Ala-Asp(OtBu)-OH
Produced peptide [2, 10]: 62.6 mM

H-Ala-Cl—F-Phe-OH
Produced peptide [2, 11]: 20.8 mM

H-Ala-Lys(Boc)-OH
Produced peptide [2, 10]: 51.0 mM

H-Ala-Ser(tBu)-OH
Produced peptide [2, 10]: 48.8 mM

H-Ala-p-F-Phe-OH
Produced peptide ([2]; carboxy component 50 mM, amine component 50 mM, 0.1 unit enzyme, 25° C., reaction time 3 hr): 21.9 mM

H-Ala-p-NO2-Phe-OH
Produced peptide [2, 11]: 27.5 mM

H-Ala-t-Leu-OH
Produced peptide [2, 9]: 0.4 mM

H-Asp(OtBu)-Gln-OH
Produced peptide [2, 10]: 0.9 mM

H-p-NO2-Phe-H-Gln-OH
Produced peptide [2, 11]: 1.1 mM

H—N—Me-Ala-H-Gln-OH
Produced peptide [2, 9]: 0.5 mM

L-Ala-D-Gln
Formed peptide [2, 6]: 0.3 mM

L-Ala-D-Ser
Produced peptide ([1]; Table 15-1): 3.3 mM
Formed peptide [2, 6]: 5.4 mM

L-Ala-Gly
Produced peptide ([1]; Table 15-1): 11.1 mM

L-Ala-Gly-Gly
Produced peptide ([1]; oligopeptide production): 33.7 mM
Produced peptide [2, 7]: 41.7 mM

L-Ala-Gly-L-Ala
Produced peptide ([1]; oligopeptide production): 35.1 mM
Produced peptide [2, 7]: 25.9 mM

L-Ala-Gly-NH2
Produced peptide ([1]; Table 15-4): 15.1 mM
Formed peptide [2, 12]: 7.4 mM

L-Ala-L-Ala
Produced peptide ([1]; Table 15-1): 13.1 mM
Produced peptide ([1]; oligopeptide production): 25.6 mM
Produced peptide [2, 7]: 28.7 mM

L-Ala-L-Ala-L-Ala
Produced peptide ([1]; oligopeptide production): 41.1 mM
Produced peptide [2, 7]: 57.5 mM

L-Ala-L-Ala-L-Ala-L-Ala
Produced peptide ([1]; oligopeptide production): 30.1 mM
Produced peptide [2, 7]: 44.5 mM

L-Ala-L-Ala-L-Ala-L-Ala-L-Ala
Produced peptide ([1]; oligopeptide production): 22.8 mM
Produced peptide [2, 7]: 34.8 mM

L-Ala-L-Ala-L-Ala-L-Ala-L-Ala-L-Ala
Produced peptide (mM) ([2]; carboxy component 10 mM, amine component 15 mM, pH 9.0, 25° C., 3 hours): 1.4* mM

L-Ala-L-Ala-L-Gln
Produced peptide [2, 7]: 15.2 mM

L-Ala-L-Ala-NH2
Produced peptide ([1]; Table 15-4): 9.2 mM
Formed peptide [2, 12]: 8.3 mM

L-Ala-L-Asn
Produced peptide ([1]; Table 15-1): 52.3 mM

L-Ala-L-Asp
Produced peptide ([1]; Table 15-1): 2.3 mM

L-Ala-L-CySH
Produced peptide (mM) ([1]; Table 15-1): +

L-Ala-L-Glu
Produced peptide ([1]; Table 15-1): 39.1 mM

L-Ala-L-His-L-Ala
Produced peptide ([1]; oligopeptide production): 58.0 mM
Produced peptide [2, 7]: 55.9 mM

L-Ala-L-Ile
Produced peptide ([1]; Table 15-1): 24.7 mM

L-Ala-L-Leu-L-Ala
Produced peptide ([1]; oligopeptide production): 40.7 mM
Produced peptide [2, 7]: 48.3 mM

L-Ala-L-Lys
Produced peptide ([1]; Table 15-1): 71.2 mM

L-Ala-L-Phe-Gly
Produced peptide ([1]; oligopeptide production): 34.0 mM
Produced peptide [2, 7]: 43.7 mM

L-Ala-L-Phe-L-Ala
Produced peptide ([1]; oligopeptide production): 24.8 mM
Produced peptide [2, 7]: 49.7 mM

L-Ala-L-Phe-NH2
Produced peptide ([1]; Table 15-4): 27.1 mM
Formed peptide [2, 12]: 12.2 mM

L-Ala-L-Pro
Produced peptide ([1]; Table 15-1): 1.5 mM

L-Ala-L-Thr
Produced peptide ([1]; Table 15-1): 47.3 mM

L-Ala-L-Trp
Produced peptide ([1]; Table 15-1): 46.0 mM

L-Ala-L-Tyr
Produced peptide ([1]; Table 15-1): 11.1 mM

L-Ala-L-Val
Produced peptide ([1]; Table 15-1): 10.9 mM

L-Asn-L-Gln
Formed peptide (mM) [3]: +

L-Asn-L-Glu
Formed peptide [3]: 10.2 mM

L-CySH-L-Gln
Formed peptide (mM) [3]: +

L-His-L-Gln
Formed peptide (mM) [3]: +

L-His-L-Met
Formed peptide [3]: 6.5 mM

L-Leu-L-Gln
Formed peptide (mM) [3]: +

L-Leu-L-Met
Formed peptide [3]: 12.2 mM

L-Lys-L-Gln
Formed peptide (mM) [3]: +

L-Lys-L-Met
Formed peptide [3]: 6.8 mM

L-Met-D-Ser
Formed peptide [2, 6]: 1.9 mM

L-Phe-L-Ser
Formed peptide ([2]; L-amino acid amide hydrochloride 100 mM as carboxy component, L-amino acid 150 mM, pH 9.0, 25° C., 3 hours): 0.6 mM

L-Ser-D-Ser
Formed peptide [2, 6]: 16.2 mM

L-Thr-D-Ser
Formed peptide [2, 6]: 6.9 mM

L-Thr-Gly-Gly
Produced peptide ([1]; oligopeptide production): 8.4 mM
Produced peptide [2, 7]: 83.0 mM

L-Thr-L-Ser
Formed peptide [3]: 58.2 mM

L-Trp-L-Gln
Formed peptide (mM) [3]: +

L-Trp-L-Met
Formed peptide [3]: 4.1 mM

L-Tyr-Gly-Gly-L-Phe-L-Met
Produced peptide [2, 8]: 2.7 mM

L-Val-D-Ser
Formed peptide [2, 6]: 1.4 mM

Thr-β-Ala
Formed peptide [2, 5]: 3.2 mM

Thr-β-Phe
Formed peptide [2, 5]: 1.4 mM

[dA]-Gly-Phe
Produced peptide (mM) ([2]; oligopeptide production, amount of enzyme 0.1 unit, pH 9.0, 25° C., 3 hours): Tr

α-L-Glu-L-Gln
Formed peptide (mM) [3]: +

β-Ala-L-Gln
Formed peptide [2, 5]: 0.6 mM

β-Ala-L-Ser
Formed peptide [2, 5]: 3.2 mM

β-Ala-L-α-Ala
Formed peptide (mM) [2, 5]: tr

β-Ala-β-Ala
Formed peptide [2, 5]: 0.2 mM

β-L-Asp-L-Gln
Formed peptide (mM) [3]: tr
